Reference: patent US20240261418A1, “SOS1 DEGRADING AGENT AND PREPARATION METHOD THEREFOR AND APPLICATION THEREOF” (SHANGHAI LEADINGTAC PHARMACEUTICAL CO. LTD., priority 2021, published 2024)

Biological target: T1, SOS1 protein (Homo sapiens, UniProt Q07889)
T1 sequence (Q07889 1-1333): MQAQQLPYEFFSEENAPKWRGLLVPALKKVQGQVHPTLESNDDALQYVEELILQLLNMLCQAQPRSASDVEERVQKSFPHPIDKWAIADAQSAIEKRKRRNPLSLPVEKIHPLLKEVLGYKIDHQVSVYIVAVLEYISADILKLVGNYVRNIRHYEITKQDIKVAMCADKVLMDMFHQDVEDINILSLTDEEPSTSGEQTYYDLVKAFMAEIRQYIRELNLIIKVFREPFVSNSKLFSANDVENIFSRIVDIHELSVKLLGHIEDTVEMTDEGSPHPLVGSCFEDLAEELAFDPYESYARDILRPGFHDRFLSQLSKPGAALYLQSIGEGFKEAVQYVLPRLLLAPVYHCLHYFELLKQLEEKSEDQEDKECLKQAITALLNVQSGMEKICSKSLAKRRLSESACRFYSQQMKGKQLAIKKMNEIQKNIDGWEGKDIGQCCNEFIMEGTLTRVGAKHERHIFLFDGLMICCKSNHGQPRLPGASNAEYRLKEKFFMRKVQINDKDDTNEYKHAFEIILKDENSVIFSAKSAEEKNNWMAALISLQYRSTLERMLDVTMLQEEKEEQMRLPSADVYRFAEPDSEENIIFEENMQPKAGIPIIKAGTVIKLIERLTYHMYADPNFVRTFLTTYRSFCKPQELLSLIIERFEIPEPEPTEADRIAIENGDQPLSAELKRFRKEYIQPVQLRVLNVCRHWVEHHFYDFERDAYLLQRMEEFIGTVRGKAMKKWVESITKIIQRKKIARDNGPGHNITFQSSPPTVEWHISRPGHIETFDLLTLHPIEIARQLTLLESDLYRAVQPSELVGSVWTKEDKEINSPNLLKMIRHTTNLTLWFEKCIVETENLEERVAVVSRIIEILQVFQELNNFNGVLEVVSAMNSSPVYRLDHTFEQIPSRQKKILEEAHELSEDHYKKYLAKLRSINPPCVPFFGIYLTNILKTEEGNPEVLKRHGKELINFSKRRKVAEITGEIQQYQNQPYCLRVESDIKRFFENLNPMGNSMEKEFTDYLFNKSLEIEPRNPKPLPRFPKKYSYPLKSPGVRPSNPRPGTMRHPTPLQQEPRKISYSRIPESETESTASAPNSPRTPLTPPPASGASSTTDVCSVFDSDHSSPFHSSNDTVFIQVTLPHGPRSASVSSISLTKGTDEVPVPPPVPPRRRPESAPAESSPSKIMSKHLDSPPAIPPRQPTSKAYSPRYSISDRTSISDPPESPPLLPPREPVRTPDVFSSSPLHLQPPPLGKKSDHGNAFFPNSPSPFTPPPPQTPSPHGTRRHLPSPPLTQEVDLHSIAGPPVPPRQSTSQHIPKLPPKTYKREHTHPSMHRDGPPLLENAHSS
Assay: SOS1 degradation assay (Western blot) in NCI-H358 cells
Format: cell-based
Settings: NCI-H358 (KRAS G12C), 24 h
Protocol: The specific procedures were as follows:
0.95 mL of cells were seeded into each well of a 24-well cell culture plate to achieve a cell density of 5×10^5 cells/well; the cell plate was incubated in an incubator at 37° C. with 5% CO2 overnight. Then 50 μL of the compound solution after dilution was added to each of the wells with the corresponding cells, so that the final concentration of the compound was in a range of 0.03-3000 nM.
After dosing, the cell plate was incubated in an incubator at 37° C. with 5% CO2 for 24 h. […] After the plate was left to stand on ice for 30 min, the protein lysate in each well was transferred to a 1.5 mL centrifuge tube and centrifuged at 15000 g for 20 min at 4° C. The cell lysate supernatant after centrifugation was cryopreserved at −80° C. for testing and was used for determining the degradation level of the SOS1 protein by a WB method. The concentration of total protein in the cell lysate supernatant was determined using the BCA Protein Quantification Kit (Tiangen, PA115-02).
The concentration of total protein in the cell lysate was determined by BCA. The total protein was adjusted to 0.5 μg/μL with PBS and 5×SDS- PAGE protein loading buffer (Beyotime, P001L), incubated in a water bath at 100° C. for 15 min, incubated in an ice bath on ice for 5 min, centrifuged at 14000 g for 1 min at 4° C., and mixed well as a loading sample for WB. Protein electrophoresis was performed on a precast gel (KeyGEN, KGMG010W15) with a loading volume of 10 μL (total protein: 5 μg) using a Tris-MOPS-SDS running solution (Adamas, P1598253) at a constant voltage of 120 V for 55 min. After the electrophoresis, the protein on the gel strip was transferred to a PVDF membrane at a constant current of 250 mA for 65 min. After the membrane transfer, the membrane was incubated in 1× QuickBlock blocking buffer (Beyotime, P0235) for 30 min at room temperature. […] The protein map was subjected to gray value analysis by the chemiluminescence imaging system from Clinx. […] Then the degradation rate was calculated by comparing the gray correction value with the gray correction value of the control group. Then nonlinear curve fitting was performed by GraphPad Prism 8 in the logarithmic concentration-inhibition rate to obtain the DC50 and Dmax values of the compounds.

Row | Structure (SMILES) | DC50 [nM] | Dmax [%]
1 | COc1cc2nc(C)nc(N[C@H](C)c3cc(-c4c(Cl)cccc4CN(C)C)cs3)c2cc1[C@H]1CC[C@H](C(=O)N2CCN(CC3CCC4(CC3)CCN(C(=O)c3ccc(Cl)c(N5CCC(=O)NC5=O)c3)CC4)CC2)CC1 [Example 1, 1-(2-chloro-5-(9-((4-((1R,4R)-4-(4-(((R)-1-(4-(2-chloro-6-((dimethylamino)methyl)phenyl)thien-2-yl)ethyl)amino)-7-methoxy-2-methylquinazolin-6-yl)cyclohexane-1-carbonyl)piperazin-1-yl)methyl)-3-azaspiro[5.5]undecane-3-carbonyl)phenyl)dihydropyrimidine-2,4(1H,3H)-dione] | < 50 | 80 to 100
2 | COc1cc2nc(C)nc(N[C@H](C)c3cc(-c4c(Cl)cccc4CN(C)C)cs3)c2cc1[C@H]1CC[C@H](C(=O)N2CCC(CCOCC3CCN(C(=O)c4ccc(Cl)c(N5CCC(=O)NC5=O)c4)CC3)CC2)CC1 [Example 5, 1-(2-chloro-5-(4-((2-(1-((1R,4R)-4-(4-(((R)-1-(4-(2-chloro-6-((dimethylamino)methyl)phenyl)thien-2-yl)ethyl)amino)-7-methoxy-2-methylquinazolin-6-yl)cyclohexane-1-carbonyl)piperidin-4-yl)ethoxy)methyl)piperidine-1-carbonyl)phenyl)dihydropyrimidine-2,4(1H,3H)-dione] | < 50 | 80 to 100
